Data set [1] has as its target Urokinase-type plasminogen activator (Homo sapiens, UniProt P00749). In words: (§1) Compound was tested in vitro for its ability to inhibit serine protease urokinase using carbobenzyloxy-Phe-Val-Arg-p-nitroanilide as substrate.
For another data set, the target named is Coagulation factor X (Homo sapiens, UniProt P00742). In words: Compound was tested in vitro for its ability to inhibit serine protease factor Xa using benzoyl-Ile-Glu-Gly-Arg-p-nitroanilide as substrate.
Sequence of Coagulation factor X (P00742 41-179 limits assumed): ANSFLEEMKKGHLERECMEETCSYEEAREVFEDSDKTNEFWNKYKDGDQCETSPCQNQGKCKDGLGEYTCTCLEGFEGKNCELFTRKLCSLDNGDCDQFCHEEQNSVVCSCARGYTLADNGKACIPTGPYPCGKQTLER
Sequence of Coagulation factor X (P00742 235-488 limits assumed): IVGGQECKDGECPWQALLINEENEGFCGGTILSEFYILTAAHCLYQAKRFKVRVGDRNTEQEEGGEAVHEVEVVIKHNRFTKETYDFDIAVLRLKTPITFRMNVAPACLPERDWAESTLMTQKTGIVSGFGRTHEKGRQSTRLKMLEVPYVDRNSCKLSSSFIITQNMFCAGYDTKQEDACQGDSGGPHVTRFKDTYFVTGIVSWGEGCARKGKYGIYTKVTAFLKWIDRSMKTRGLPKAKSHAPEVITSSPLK
Data set [2] in a line: Compound was tested in vitro for its ability to inhibit serine protease elastase using suc-Ala-Ala-Pro-Val-p-nitroanilide as substrate.
The next data set deals with Plasminogen (Homo sapiens, UniProt P00747). Kind of data set: Compound was tested in vitro for its ability to inhibit serine protease plasmin using tosyl-Gly-Pro-Lys-p-nitroanilide as substrate.
Sequence of Plasminogen (P00747 97-580 limits assumed): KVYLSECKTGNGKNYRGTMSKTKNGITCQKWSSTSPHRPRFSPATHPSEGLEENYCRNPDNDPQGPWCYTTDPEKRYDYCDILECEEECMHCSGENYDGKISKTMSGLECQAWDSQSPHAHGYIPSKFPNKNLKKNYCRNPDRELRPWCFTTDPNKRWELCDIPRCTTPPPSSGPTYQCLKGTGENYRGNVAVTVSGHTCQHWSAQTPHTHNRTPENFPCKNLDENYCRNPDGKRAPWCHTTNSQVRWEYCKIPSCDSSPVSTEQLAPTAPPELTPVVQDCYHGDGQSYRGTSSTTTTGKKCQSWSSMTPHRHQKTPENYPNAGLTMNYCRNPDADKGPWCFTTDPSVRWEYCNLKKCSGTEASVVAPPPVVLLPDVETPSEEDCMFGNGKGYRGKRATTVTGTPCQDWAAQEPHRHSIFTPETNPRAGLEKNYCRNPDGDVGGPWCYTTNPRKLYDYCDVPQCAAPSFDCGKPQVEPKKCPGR
Sequence of Plasminogen (P00747 581-810 limits assumed): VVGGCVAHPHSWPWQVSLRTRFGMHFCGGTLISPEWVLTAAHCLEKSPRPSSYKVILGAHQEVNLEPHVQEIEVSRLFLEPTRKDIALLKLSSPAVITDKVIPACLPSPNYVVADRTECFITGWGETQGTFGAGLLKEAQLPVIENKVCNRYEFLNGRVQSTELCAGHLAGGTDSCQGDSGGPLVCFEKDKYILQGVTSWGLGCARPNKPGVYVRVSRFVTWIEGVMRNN
For data set [3], the system named is CC(C)[C@H](NC(=O)[C@H](Cc1ccccc1)NC(=O)OCc1ccccc1)C(=O)N[C@@H](CCCN=C(N)N)C(=O)Nc1ccc([N+](=O)[O-])cc1. The description is as §1.
The target of a further data set is Prothrombin (Homo sapiens, UniProt P00734). Kind of data set: Compound was tested in vitro for its ability to inhibit serine protease thrombin using […] as substrate.
Compound in data set [4]: CC(C)[C@H](NC(=O)[C@H](Cc1ccccc1)NC(=O)c1ccccc1)C(=O)N[C@@H](CCCN=C(N)N)C(=O)Nc1ccc([N+](=O)[O-])cc1
In words: Compound was tested in vitro for its ability to inhibit serine protease trypsin using benzoyl-Phe-Val-Arg-p-nitroanilide as substrate. Particulars: Bos taurus.

Compound in data set [5]: C[C@H](NC(=O)CCC(=O)O)C(=O)N[C@@H](C)C(=O)N1CCC[C@H]1C(=O)N[C@@H](Cc1ccccc1)C(=O)Nc1ccc([N+](=O)[O-])cc1
Kind of data set: Compound was tested in vitro for its ability to inhibit serine protease Chymotrypsinogen using suc-Ala-Ala-Pro-Phe-p-nitroanilide as substrate.

Values joined by “and” are separate entries in the source; they are usually repeats but may differ in a detail not shown here. Equal values may be shown once.

One may read the Ki as the equilibrium dissociation constant of an inhibitor or competing ligand from its target. Lower therefore signals a stronger hold on the target. Take `Cc1cc(OCCN(C)c2ccncc2)cc(OS(=O)(=O)c2ccccc2Cl)c1`: the Ki in data set [1] is greater than 200 µM; on Coagulation factor X it was 160 µM; in data set [2], greater than 200 µM; on Plasminogen, greater than 200 µM.

Consider `Cc1cc(OCCCCN=C(N)N)cc(OS(=O)(=O)c2ccccc2Cl)c1`, for which the Ki in data set [1] was greater than 200 µM; at Coagulation factor X, 110 µM; in data set [2] it was greater than 200 µM; at Plasminogen, greater than 200 µM.

What is called Km is the substrate concentration at which the rate is half of its maximum. As for “Urokinase-type plasminogen activator (Homo sapiens) (from UniProt P00749)”, the Km in data set [3] was 190 µM and 170 µM.

On to `Cc1cc(OCCCCCN=C(N)N)cc(OS(=O)(=O)c2ccccc2Cl)c1`, for which the Ki in data set [1] is greater than 200 µM; on Prothrombin, 0.26 µM; at Coagulation factor X, 120 µM; in data set [2], greater than 200 µM; on Plasminogen, greater than 200 µM.

As to `Cc1cc(OCC2CCCN(C(=N)N)C2)cc(OS(=O)(=O)c2ccccc2Cl)c1` (stereo unspecified), the inhibition constant (Ki) in data set [1] was greater than 200 µM; at Prothrombin it was 0.32 µM; on Coagulation factor X, 29 µM; in data set [2], greater than 200 µM; at Plasminogen, greater than 200 µM.

`Cc1cc(OCC2CCN(C(=N)N)CC2)cc(OS(=O)(=O)c2ccccc2Cl)c1`: the Ki was greater than 200 µM in data set [1]; 0.0046 µM at Prothrombin; 80 µM at Coagulation factor X; greater than 200 µM in data set [2]; greater than 200 µM at Plasminogen.

`Cc1cc(OCCCN=C(N)N)cc(OS(=O)(=O)c2ccccc2Cl)c1`: the Ki is greater than 200 µM in data set [1]; 0.033 µM at Prothrombin; greater than 200 µM at Coagulation factor X; greater than 200 µM in data set [2]; greater than 200 µM at Plasminogen.

B1: Serine protease 1 (Bos taurus), P00760 (protein)
chain: MKTFIFLALLGAAVAFPVDDDDKIVGGYTCGANTVPYQVSLNSGYHFCGGSLINSQWVVSAAHCYKSGIQVRLGEDNINVVEGNEQFISASKSIVHPSYNSNTLNNDIMLIKLKSAASLNSRVASISLPTSCASAGTQCLISGWGNTKSSGTSYPDVLKCLKAPILSDSSCKSAYPGQITSNMFCAGYLEGGKDSCQGDSGGPVVCSGKLQGIVSWGSGCAQKNKPGVYTKVCNYVSWIKQTIASN
For the molecule B1, in data set [4], the Km is 160 µM and 100 µM.

B2: Chymotrypsin-C (Homo sapiens), Q99895 (protein)
chain: MLGITVLAALLACASSCGVPSFPPNLSARVVGGEDARPHSWPWQISLQYLKNDTWRHTCGGTLIASNFVLTAAHCISNTRTYRVAVGKNNLEVEDEEGSLFVGVDTIHVHKRWNALLLRNDIALIKLAEHVELSDTIQVACLPEKDSLLPKDYPCYVTGWGRLWTNGPIADKLQQGLQPVVDHATCSRIDWWGFRVKKTMVCAGGDGVISACNGDSGGPLNCQLENGSWEVFGIVSFGSRRGCNTRKKPVVYTRVSAYIDWINEKMQL
On to B2, for which the Km in data set [5] is 60 µM and 100 µM.

The values above are taken from ChEMBL document CHEMBL1130852, “In vitro evaluation and crystallographic analysis of a new class of selective, non-amide-based thrombin inhibitors” (Bioorg Med Chem Lett, 1998).
